# Experimental data: ChEMBL document CHEMBL5331070, “Design, synthesis and evaluation of N3-substituted quinazolinone derivatives as potential Bloom's Syndrome protein (BLM) helicase inhibitor for sensitization treatment of colorectal cancer” (Eur J Med Chem, 2023)
# Active and inactive are the calls of the source. No cut-off for these calls is given here.
# Legend:
# [1] = molecular target: T1, RecQ-like DNA helicase BLM (Homo sapiens, UniProt P54132); assay: Inhibition of His-tagged BLM (unknown origin) expressed in Escherichia coli BL21 (DE3) using 5'-biotin-labeled duplex forked-DNA as substrate incubated for 10 mins followed by substrate addition measured after 30 mins in presence of ATP by electrophoretic mobility shift assay
# T1 sequence (P54132 whole entry): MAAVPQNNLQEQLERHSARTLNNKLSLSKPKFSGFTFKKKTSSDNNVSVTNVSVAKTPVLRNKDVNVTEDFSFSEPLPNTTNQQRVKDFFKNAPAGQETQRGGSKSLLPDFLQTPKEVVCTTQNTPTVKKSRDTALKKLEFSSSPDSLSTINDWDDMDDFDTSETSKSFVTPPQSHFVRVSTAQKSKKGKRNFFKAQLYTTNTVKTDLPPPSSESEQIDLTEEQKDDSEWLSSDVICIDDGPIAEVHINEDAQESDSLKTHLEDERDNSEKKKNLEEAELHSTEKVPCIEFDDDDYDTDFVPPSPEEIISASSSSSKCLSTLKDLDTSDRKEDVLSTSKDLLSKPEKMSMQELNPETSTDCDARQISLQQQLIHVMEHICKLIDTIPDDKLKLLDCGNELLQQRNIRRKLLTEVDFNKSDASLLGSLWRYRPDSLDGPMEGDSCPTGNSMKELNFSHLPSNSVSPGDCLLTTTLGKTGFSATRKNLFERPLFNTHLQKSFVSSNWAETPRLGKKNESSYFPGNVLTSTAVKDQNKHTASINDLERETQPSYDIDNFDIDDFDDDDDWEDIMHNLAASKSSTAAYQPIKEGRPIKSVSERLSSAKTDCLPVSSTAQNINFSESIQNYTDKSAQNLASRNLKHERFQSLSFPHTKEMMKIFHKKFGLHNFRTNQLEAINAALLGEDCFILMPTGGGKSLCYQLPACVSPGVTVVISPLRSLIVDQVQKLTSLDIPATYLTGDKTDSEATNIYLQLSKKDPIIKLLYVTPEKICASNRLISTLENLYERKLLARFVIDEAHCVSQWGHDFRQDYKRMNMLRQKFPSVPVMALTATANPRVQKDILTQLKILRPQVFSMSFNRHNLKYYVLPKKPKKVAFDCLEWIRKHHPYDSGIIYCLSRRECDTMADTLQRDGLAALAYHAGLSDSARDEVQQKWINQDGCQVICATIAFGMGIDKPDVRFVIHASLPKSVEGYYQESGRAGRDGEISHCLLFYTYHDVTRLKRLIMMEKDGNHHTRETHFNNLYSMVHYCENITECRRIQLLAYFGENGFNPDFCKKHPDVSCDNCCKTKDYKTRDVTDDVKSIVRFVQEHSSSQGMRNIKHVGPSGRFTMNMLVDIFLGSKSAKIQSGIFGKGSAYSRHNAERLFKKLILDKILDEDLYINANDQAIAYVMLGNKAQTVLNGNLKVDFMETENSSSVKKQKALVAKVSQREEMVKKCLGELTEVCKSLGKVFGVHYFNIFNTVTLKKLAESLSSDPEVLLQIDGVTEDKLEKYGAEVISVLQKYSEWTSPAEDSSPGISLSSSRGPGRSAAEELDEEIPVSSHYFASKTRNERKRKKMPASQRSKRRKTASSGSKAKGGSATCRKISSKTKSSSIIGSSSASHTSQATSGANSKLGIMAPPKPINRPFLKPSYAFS
# [2] = molecular target: T1, RecQ-like DNA helicase BLM; assay: Displacement of thiazole orange from His-tagged BLM (unknown origin) expressed in Escherichia coli BL21 (DE3) assessed as decrease in fluorescence intensity at 10 uM by fluorescence based analysis
# SW480 [3] = assay: Cytotoxicity against human SW480 cells assessed as inhibition of cell growth measured after 48 hrs by MTT assay; type: functional, cell-based; conditions: SW480, 48 h
# [4] = Cytotoxicity against human NCM460 cells assessed as inhibition of cell growth measured after 48 hrs by MTT assay; type: toxicity, cell-based
# RKO [5] = assay: Cytotoxicity against human RKO cells assessed as inhibition of cell growth measured after 48 hrs by MTT assay; type: functional, cell-based
# [6] = molecular target: T1, RecQ-like DNA helicase BLM; assay: Inhibition of BLM (unknown origin) assessed as ATP hydrolysis using 5'-biotin-labeled duplex forked-DNA as substrate incubated for 10 mins in presence of ATP by luciferase assay
# HCT-116 [7] = assay: Cytotoxicity against human HCT-116 cells assessed as inhibition of cell growth measured after 48 hrs by MTT assay; type: functional, cell-based; conditions: HCT-116, 48 h
# [8] = Disruption of BLM/5'-biotin-labeled duplex forked-DNA interaction incubated for 30 mins by ELISA assay
# [9] = molecular target: T1, RecQ-like DNA helicase BLM; assay: Displacement of thiazole orange from His-tagged BLM (unknown origin) expressed in Escherichia coli BL21 (DE3) assessed as decrease in fluorescence intensity by fluorescence based analysis
# SW480 [10] = assay: Induction of DNA damage in human SW480 cells assessed as increase in gamma-H2AX level at above 0.3 uM incubated for 48 hrs by Western blotting analysis; type: functional, cell-based
# [11] = molecular target: T1, RecQ-like DNA helicase BLM; assay: Inhibition of BLM in human HCT-116 cells co-transfected with DR-GFP and I-SceI plasmid assessed as decease in recruitment of BLM to DSB site at 1 to 2 uM incubated for 48 hrs by qPCR analysis; type: cell-based; conditions: dose 1-2 µM
# HCT-116 [12] = assay: Induction of DNA damage in human HCT-116 cells at 3 uM incubated for 48 hrs by DAPI staining based laser scanning confocal microscopic analysis; type: functional, cell-based
# RKO [13] = assay: Induction of cell cycle arrest in human RKO cells assessed as accumulation of cells at G2/M phase at 4 uM measured after 48 hrs by propidium iodide staining based high-content screening method; type: functional
# SW480 [14] = assay: Induction of cell cycle arrest in human SW480 cells assessed as accumulation of cells at G2/M phase at 4 uM measured after 48 hrs by propidium iodide staining based high-content screening method; type: functional
# HCT-116 [15] = assay: Inhibition of colony formation in human HCT-116 cells incubated for 10 days by crystal violet staining based assay; type: functional, cell-based; conditions: HCT-116, 240 h
# SW480 [16] = assay: Induction of DNA damage in human SW480 cells at 3 uM incubated for 48 hrs by DAPI staining based laser scanning confocal microscopic analysis; type: functional, cell-based
# SW480 [17] = assay: Inhibition of colony formation in human SW480 cells incubated for 10 days by crystal violet staining based assay; type: functional, cell-based; conditions: SW480, 240 h
# HCT-116 [18] = assay: Induction of cell cycle arrest in human HCT-116 cells assessed as accumulation of cells at S phase at 4 uM measured after 48 hrs by propidium iodide staining based high-content screening method; type: functional
# RKO [19] = assay: Induction of DNA damage in human RKO cells at 3 uM incubated for 48 hrs by DAPI staining based laser scanning confocal microscopic analysis; type: functional, cell-based
# [20] = molecular target: T1, RecQ-like DNA helicase BLM; assay: Inhibition of BLM in human HCT-116 cells co-transfected with I-SceI assessed as effect on HRR level by measuring GFP expression at 1 to 3 uM incubated for 48 hrs by propidium iodide staining based high-content imaging analysis; type: cell-based; conditions: dose 1-3 µM
# HCT-116 [21] = assay: Induction of DNA damage in human HCT-116 cells assessed as increase in gamma-H2AX level at above 0.3 uM incubated for 48 hrs by Western blotting analysis; type: functional, cell-based
# HCT-116 [22] = assay: Antiproliferative activity against wild type human HCT-116 cells assessed as inhibition of cell growth incubated for 48 hrs by propidium iodide staining based high-content imaging analysis; type: functional; conditions: HCT-116, 48 h
# SW480 [23] = assay: Induction of apoptosis in human SW480 cells assessed as apoptotic cells at 1 uM measured after 48 hrs by Annexin V-FITC/PI staining based flow cytometry (reference value: 16%); type: functional
# SW480 [24] = assay: Induction of cell cycle arrest in human SW480 cells assessed as accumulation of cells at S phase at 4 uM measured after 48 hrs by propidium iodide staining based high-content screening method; type: functional
# RKO [25] = assay: Inhibition of colony formation in human RKO cells incubated for 10 days by crystal violet staining based assay; type: functional, cell-based; conditions: 240 h
# HCT-116 [26] = assay: Induction of apoptosis in human HCT-116 cells assessed as apoptotic cells at 1 uM measured after 48 hrs by Annexin V-FITC/PI staining based flow cytometry (reference value: 14%); type: functional
# RKO [27] = assay: Induction of DNA damage in human RKO cells assessed as increase in gamma-H2AX level at above 0.3 uM incubated for 48 hrs by Western blotting analysis; type: functional, cell-based
# HCT-116 [28] = assay: Induction of cell cycle arrest in human HCT-116 cells assessed as accumulation of cells at G2/M phase at 4 uM measured after 48 hrs by propidium iodide staining based high-content screening method; type: functional
# HCT-116 [29] = assay: Inhibition of cell invasion in human HCT-116 cells incubated for 48 hrs by crystal violet staining based transwell assay; type: functional; conditions: HCT-116, 48 h
smiles,measurement,setting,value
CCN(CC)CCCNc1cc2nc(/C=C/c3ccc(C(C)C)cc3)n(CC3CCOCC3)c(=O)c2cc1F,IC50,[1],> 32 µM
same,Activity,[2],inactive
CCN(CC)CCCNc1cc2nc(/C=C/c3ccc(C(C)C)cc3)n(CCCN(CC)CC)c(=O)c2cc1F,IC50,[1],> 32 µM
same,Activity,[2],inactive
CCN(CC)CCCNc1cc2nc(/C=C/c3ccc(C(C)C)cc3)n(CC3CC3)c(=O)c2cc1F,IC50,[1],8.3 µM
same,Activity,[2],inactive
CCN(CC)CCCNc1cc2nc(/C=C/c3ccc(C(C)C)cc3)n(CCCO)c(=O)c2cc1F,IC50,[1],32 µM
same,Activity,[2],inactive
CCN(CC)CCCNc1cc2nc(/C=C/c3ccc(C(C)C)cc3)n(CCCl)c(=O)c2cc1F,IC50,[1],5.1 µM
same,IC50,SW480 [3],4.5 µM
same,IC50 at 48 h,[4],15 µM
same,IC50,RKO [5],5.6 µM
same,IC50,[6],> 32 µM
same,IC50,HCT-116 [7],5.6 µM
same,IC50,[8],7.3 µM
same,IC50,[9],> 10 µM
CCN(CC)CCCNc1cc2nc(/C=C/c3ccc(C(C)C)cc3)n(Cc3ccccc3Cl)c(=O)c2cc1F,IC50,[1],9.7 µM
same,Activity,[2],inactive
CCN(CC)CCCNc1cc2nc(/C=C/c3ccc(C(C)C)cc3)n(CCCN3CCOCC3)c(=O)c2cc1F,IC50,[1],> 32 µM
same,IC50,[9],> 10 µM
CCN(CC)CCCNc1cc2nc(/C=C/c3ccc(C(C)C)cc3)n(CCCCl)c(=O)c2cc1F,IC50,[1],1.3 µM
same,IC50,SW480 [3],3.45 µM
same,IC50 at 48 h,[4],9.6 µM
same,IC50,RKO [5],12.3 µM
same,IC50,[6],> 32 µM
same,Activity,[2],inactive
same,IC50,HCT-116 [7],5.3 µM
same,IC50,[8],4.9 µM
CCN(CC)CCCNc1cc2nc(/C=C/c3ccc(C(C)C)cc3)n(Cc3ccccc3C(F)(F)F)c(=O)c2cc1F,IC50,[1],5.3 µM
same,Activity,[2],inactive
CCCn1c(/C=C/c2ccc(C(C)C)cc2)nc2cc(NCCCN(CC)CC)c(F)cc2c1=O,IC50,[1],> 32 µM
same,IC50,[9],> 10 µM
CCCCn1c(/C=C/c2ccc(C(C)C)cc2)nc2cc(NCCCN(CC)CC)c(F)cc2c1=O,IC50,[1],4.8 µM
same,Activity,[2],inactive
CCN(CC)CCCNc1cc2nc(/C=C/c3ccc(C(C)C)cc3)n(Cc3ccc(Br)cc3)c(=O)c2cc1F,IC50,[1],0.8 µM
same,Activity,SW480 [10],Active
same,IC50,SW480 [3],2.2 µM
same,IC50 at 48 h,[4],15.6 µM
same,IC50,RKO [5],5.4 µM
same,inhibition,[11],Active
same,Activity,HCT-116 [12],Active
same,IC50,[6],> 32 µM
same,Activity,[2],inactive
same,Activity,RKO [13],25%
same,Activity,SW480 [14],19%
same,IC50,HCT-116 [7],2.8 µM
same,IC50,HCT-116 [15],0.6 µM
same,Activity,SW480 [16],Active
same,IC50,SW480 [17],0.6 µM
same,Activity,HCT-116 [18],54%
same,Activity,RKO [19],Active
same,inhibition,[20],Active
same,Activity,HCT-116 [21],Active
same,IC50,HCT-116 [22],1.9 µM
same,Activity,SW480 [23],68%
same,Activity,SW480 [24],58%
same,IC50,[8],2.3 µM
same,IC50,RKO [25],0.7 µM
same,Activity,HCT-116 [26],35%
same,Activity,RKO [27],Active
same,Activity,HCT-116 [28],20%
same,IC50,HCT-116 [29],1 µM
CCN(CC)CCCNc1cc2nc(/C=C/c3ccc(C(C)C)cc3)n(CCOC(C)=O)c(=O)c2cc1F,IC50,[1],> 32 µM
same,IC50,[9],> 10 µM
